Experimental data taken from patent US20090311217A1, “3-SUBSTITUTED-1H-INDOLE COMPOUNDS, THEIR USE AS MTOR KINASE AND PI3 KINASE INHIBITORS, AND THEIR SYNTHESES” (priority 2008, published 2009).

Key:
Format in all cases: biochemical
PI3K-alpha = PI3K-alpha (Homo sapiens, UniProt P42336); assay: PI3K-alpha fluorescence polarization assay; conditions: read-out: PI3Kα Avg. IC50
PI3K-gamma = PI3K-gamma (Homo sapiens, UniProt P48736); assay: PI3K-gamma fluorescence polarization assay; conditions: PI3Kγ Avg. IC50
In short: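 FP displacement read-out: 100 nM GST-GRP1 PH domain plus 5 nM BODIPY-TMR-IP4 added after EDTA stop. Preceding kinase step: 5 ng enzyme, diC8-PI(4,5)P2 2.5 μM, ATP 25 μM, MgCl2 2.5 mM, HEPES 5 mM pH 7, one hour, 25° C.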

human TOR = target: T1, human TOR (Homo sapiens, UniProt P42345); assay: mTOR enzyme assay (DELFIA, His6-S6K substrate); conditions: read-out: mTOR Kinase Avg. IC50
T1 construct: FLAG

Sequence of PI3K-alpha (P42336 whole entry, species assumed): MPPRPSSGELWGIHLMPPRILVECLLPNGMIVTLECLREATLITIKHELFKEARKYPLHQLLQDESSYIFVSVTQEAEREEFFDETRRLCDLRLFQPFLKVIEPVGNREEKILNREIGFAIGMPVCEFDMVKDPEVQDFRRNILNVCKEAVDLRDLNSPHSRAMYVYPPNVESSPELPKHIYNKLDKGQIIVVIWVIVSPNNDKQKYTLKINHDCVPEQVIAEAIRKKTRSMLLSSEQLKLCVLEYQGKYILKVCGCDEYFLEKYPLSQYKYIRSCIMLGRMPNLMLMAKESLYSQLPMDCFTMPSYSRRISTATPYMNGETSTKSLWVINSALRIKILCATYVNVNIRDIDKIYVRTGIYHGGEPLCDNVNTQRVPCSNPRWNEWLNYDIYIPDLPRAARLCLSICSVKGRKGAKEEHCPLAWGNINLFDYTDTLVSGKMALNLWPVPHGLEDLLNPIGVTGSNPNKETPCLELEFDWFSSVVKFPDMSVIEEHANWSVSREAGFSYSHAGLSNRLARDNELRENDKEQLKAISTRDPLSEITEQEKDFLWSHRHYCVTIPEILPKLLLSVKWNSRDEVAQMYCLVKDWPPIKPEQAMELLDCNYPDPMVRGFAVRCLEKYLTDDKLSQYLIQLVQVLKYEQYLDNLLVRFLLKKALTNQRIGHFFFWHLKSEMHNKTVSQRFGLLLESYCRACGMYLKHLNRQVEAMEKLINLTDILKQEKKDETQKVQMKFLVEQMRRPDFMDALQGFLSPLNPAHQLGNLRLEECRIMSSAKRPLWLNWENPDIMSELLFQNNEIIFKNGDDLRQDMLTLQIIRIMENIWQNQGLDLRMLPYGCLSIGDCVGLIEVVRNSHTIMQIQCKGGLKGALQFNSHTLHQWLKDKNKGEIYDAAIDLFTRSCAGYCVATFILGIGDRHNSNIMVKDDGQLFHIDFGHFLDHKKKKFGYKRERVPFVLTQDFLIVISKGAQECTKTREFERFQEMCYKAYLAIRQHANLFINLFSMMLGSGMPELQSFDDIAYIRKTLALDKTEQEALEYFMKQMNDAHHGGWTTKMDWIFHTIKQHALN
Sequence of PI3K-alpha (P27986 whole entry partner, species assumed): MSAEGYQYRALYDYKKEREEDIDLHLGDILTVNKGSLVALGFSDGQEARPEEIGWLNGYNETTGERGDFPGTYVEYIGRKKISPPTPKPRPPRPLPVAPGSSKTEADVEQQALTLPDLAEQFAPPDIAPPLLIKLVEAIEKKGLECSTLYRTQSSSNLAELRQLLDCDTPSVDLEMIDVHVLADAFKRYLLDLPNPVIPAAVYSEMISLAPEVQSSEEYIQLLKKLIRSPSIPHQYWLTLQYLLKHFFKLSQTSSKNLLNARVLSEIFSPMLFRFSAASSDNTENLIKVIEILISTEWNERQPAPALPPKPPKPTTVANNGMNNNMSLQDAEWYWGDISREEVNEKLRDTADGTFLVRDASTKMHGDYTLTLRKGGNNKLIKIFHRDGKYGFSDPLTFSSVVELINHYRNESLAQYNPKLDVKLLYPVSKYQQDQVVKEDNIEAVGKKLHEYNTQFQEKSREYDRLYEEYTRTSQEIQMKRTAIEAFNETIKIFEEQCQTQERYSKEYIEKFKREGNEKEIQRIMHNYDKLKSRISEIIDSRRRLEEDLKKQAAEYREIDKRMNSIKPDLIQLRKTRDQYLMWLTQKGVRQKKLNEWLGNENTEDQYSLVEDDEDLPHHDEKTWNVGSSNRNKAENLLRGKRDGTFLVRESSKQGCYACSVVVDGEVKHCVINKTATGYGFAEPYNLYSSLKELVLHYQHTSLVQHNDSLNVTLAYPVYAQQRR
Sequence of PI3K-gamma (P48736 whole entry, species assumed, the tested form may be a part): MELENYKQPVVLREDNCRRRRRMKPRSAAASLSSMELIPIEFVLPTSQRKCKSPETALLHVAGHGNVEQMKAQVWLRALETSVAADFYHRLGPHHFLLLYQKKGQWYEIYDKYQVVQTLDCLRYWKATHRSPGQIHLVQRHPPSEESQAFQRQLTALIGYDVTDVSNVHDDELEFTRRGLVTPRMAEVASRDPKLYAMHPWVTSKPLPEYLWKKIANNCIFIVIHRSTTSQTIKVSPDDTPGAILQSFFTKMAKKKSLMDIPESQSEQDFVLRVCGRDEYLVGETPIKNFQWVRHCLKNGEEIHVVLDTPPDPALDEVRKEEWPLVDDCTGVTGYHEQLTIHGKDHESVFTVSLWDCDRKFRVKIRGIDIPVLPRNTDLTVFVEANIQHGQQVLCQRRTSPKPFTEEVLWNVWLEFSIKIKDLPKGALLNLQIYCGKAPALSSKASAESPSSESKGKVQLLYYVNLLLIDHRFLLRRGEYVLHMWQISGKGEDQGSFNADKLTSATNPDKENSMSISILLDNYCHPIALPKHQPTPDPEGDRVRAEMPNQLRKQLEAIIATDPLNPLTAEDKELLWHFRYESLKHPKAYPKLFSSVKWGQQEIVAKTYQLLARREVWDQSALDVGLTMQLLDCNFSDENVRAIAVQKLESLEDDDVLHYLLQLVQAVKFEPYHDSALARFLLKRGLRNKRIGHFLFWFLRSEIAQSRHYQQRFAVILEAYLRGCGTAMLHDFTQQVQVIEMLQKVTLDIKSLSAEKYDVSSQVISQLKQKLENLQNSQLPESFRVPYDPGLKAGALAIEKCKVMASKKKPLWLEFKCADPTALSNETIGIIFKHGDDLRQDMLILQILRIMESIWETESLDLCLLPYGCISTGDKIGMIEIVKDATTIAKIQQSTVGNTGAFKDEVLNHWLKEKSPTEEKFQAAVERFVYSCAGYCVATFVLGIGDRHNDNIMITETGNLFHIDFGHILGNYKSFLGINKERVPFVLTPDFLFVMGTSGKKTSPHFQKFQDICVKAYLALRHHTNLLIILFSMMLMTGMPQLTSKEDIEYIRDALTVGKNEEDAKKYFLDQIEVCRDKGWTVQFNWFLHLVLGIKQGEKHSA

SMILES | IC50 (PI3K-alpha) | IC50 (PI3K-gamma) | IC50 (human TOR)
Cn1cc(/C=C2\Oc3c(Br)ccc(O)c3C2=O)c2c(-c3ccccc3)cccc21 [Example 428, (2Z)-7-Bromo-4-hydroxy-2-[(1-methyl-4-phenyl-1H-indol-3-yl)methylene]benzofuran-3(2H)-one] | > 5000 nM | > 5000 nM | > 20000 nM
O=C1C(=Cc2c(-c3ccncc3)[nH]c3ccccc23)Oc2cc(O)cc(O)c21 [Example 203, 4,6-dihydroxy-2-[(2-pyridin-4-yl-1H-indol-3-yl)methylene]-1-benzofuran-3(2H)-one] | 1410 nM | 6620 nM | 150 nM
COc1ccc2c(c1)c(/C=C1\Oc3cc(O)ccc3C1=O)c(C1CC1)n2CCCN(C)C [Example 462, (2Z)-2-({2-Cyclopropyl-1-[3-(dimethylamino)propyl]-5-methoxy-1H-indol-3-yl}methylene)-6-hydroxy-1-benzofuran-3(2H)-one] | 21.5 nM | 1050 nM | 635 nM
COc1cc(F)c2[nH]c(-c3c(C)nn(C)c3C)c(/C=C3\Oc4ccc(NC(=O)Nc5ccc(C(=O)N6CCOCC6)cc5)cc4C3=O)c2c1 [Compound 731, 1-[(2Z)-2-{[7-fluoro-5-methoxy-2-(1,3,5-trimethyl-1H-pyrazol-4-yl)-1H-indol-3-yl]methylidene}-3-oxo-2,3-dihydro-1-benzofuran-5-yl]-3-[4-(morpholin-4-ylcarbonyl)phenyl]urea] | 0.55 nM | 1.5 nM | 3 nM
COc1ccc2[nH]c(C3CCCCC3)c(/C=C3\Oc4ccc(NC(=O)Nc5ccc(C(=O)N6CCN(C)CC6)cc5)cc4C3=O)c2c1 [Compound 644, 1-{(2Z)-2-[(2-cyclohexyl-5-methoxy-1H-indol-3-yl)methylene]-3-oxo-2,3-dihydro-1-benzofuran-5-yl}-3-{4-[(4-methylpiperazin-1-yl)carbonyl]phenyl}urea] | 0.3 nM | 2.5 nM | 33 nM
COc1cc(F)c2[nH]c(-c3c(C)nn(C)c3C)c(/C=C3\Oc4ccc(NC(=O)Nc5ccc(C(=O)NCCN(C)C)cc5)cc4C3=O)c2c1 [Compound 733, N-[2-(dimethylamino)ethyl]-4-({[(2Z)-2-{[7-fluoro-5-methoxy-2-(1,3,5-trimethyl-1H-pyrazol-4-yl)-1H-indol-3-yl]methylidene}-3-oxo-2,3-dihydro-1-benzofuran-5-yl]carbamoyl}amino)benzamide] | 0.3 nM | 3 nM | < 1 nM
O=C(O)c1ccc2[nH]cc(C=C3Oc4cc(O)cc(O)c4C3=O)c2c1 [Example 165, 3-[(4,6-dihydroxy-3-oxo-1-benzofuran-2(3H)-ylidene)methyl]-1H-indole-5-carboxylic acid] | 9500 nM | > 10000 nM | > 20000 nM
CNC(=O)Nc1ccc2c(c1)C(=O)/C(=C/c1c(C(C)(C)C)[nH]c3ccc(OC)cc13)O2 [Compound 631, 1-{(2Z)-2-[(2-tert-butyl-5-methoxy-1H-indol-3-yl)methylidene]-3-oxo-2,3-dihydro-1-benzofuran-5-yl}-3-methylurea] | 5 nM | 54.5 nM | 2 nM
CN1CCN(c2cccc3c2c(/C=C2\Oc4cc(O)cc(O)c4C2=O)cn3C)CC1 [Example 439, (2Z)-4,6-dihydroxy-2-{[1-methyl-4-(4-methylpiperazin-1-yl)-1H-indol-3-yl]methylene}-1-benzofuran-3(2H)-one] | 4280 nM | > 10000 nM | 33.8 nM
COc1ccc2c(c1)O/C(=C\c1c[nH]c3ccc(OC)cc13)C2=O [Example 384, (2Z)-6-Methoxy-2-[(5-methoxy-1H-indol-3-yl)methylene]-1-benzofuran-3(2H)-one] | > 10000 nM | 2450 nM | > 20000 nM
COc1ccc2c(c1)c(/C=C1\Oc3cc(O)cc(O)c3C1=O)cn2CCn1ccnc1 [Example 312, (2Z)-4,6-Dihydroxy-2-({1-[2-(1H-imidazol-1-yl)ethyl]-5-methoxy-1H-indol-3-yl}methylene)-1-benzofuran-3(2H)-one] | 9.5 nM | 81.5 nM | 152 nM
CNC(=O)Nc1ccc2c(c1)C(=O)/C(=C/c1c(-c3c(C)nn(C)c3C)[nH]c3ccc(OCCOC)cc13)O2 [Compound 680, 1-[(2Z)-2-{[5-(2-methoxyethoxy)-2-(1,3,5-trimethyl-1H-pyrazol-4-yl)-1H-indol-3-yl]methylidene}-3-oxo-2,3-dihydro-1-benzofuran-5-yl]-3-methylurea] | 1920 nM | 6030 nM | 535 nM
CNC(=O)Nc1ccc2c(c1)C(=O)/C(=C/c1c(-c3c(OC)cccc3OC)[nH]c3ccc(OC)cc13)O2 [Compound 637, 1-[(2Z)-2-{[2-(2,6-dimethoxyphenyl)-5-methoxy-1H-indol-3-yl]methylene}-3-oxo-2,3-dihydro-1-benzofuran-5-yl]-3-methylurea] | 2.2 nM | 18.5 nM | 35 nM
CNC(=O)Nc1ccc2c(c1)C(=O)/C(=C/c1c(N3CCN(C)CC3)n(CCN3CCN(C)CC3)c3ccc(OC)cc13)O2 [Compound 636, 1-[(2Z)-2-({5-methoxy-2-(4-methylpiperazin-1-yl)-1-[2-(4-methylpiperazin-1-yl)ethyl]-1H-indol-3-yl}methylene)-3-oxo-2,3-dihydro-1-benzofuran-5-yl]-3-methylurea] | 4 nM | 1010 nM | 165 nM
CNCCNC(=O)c1ccc(NC(=O)Nc2ccc3c(c2)C(=O)/C(=C/c2c(C)n(C)c4ccc(OC)cc24)O3)cc1 [Compound 661, 4-[({(2Z)-2-[(5-methoxy-1,2-dimethyl-1H-indol-3-yl)methylene]-3-oxo-2,3-dihydro-1-benzofuran-5-yl}carbamoyl)amino]-N-[2-(methylamino)ethyl]benzamide] | 0.3 nM | 2 nM | 6 nM
CCn1c(C)c(/C=C2\Oc3ccc(NC(=O)Nc4ccc(OCCN(C)C)cc4)cc3C2=O)c2cc(OC)ccc21 [Compound 667, 1-{4-[2-(dimethylamino)ethoxy]phenyl}-3-{(2Z)-2-[(1-ethyl-5-methoxy-2-methyl-1H-indol-3-yl)methylidene]-3-oxo-2,3-dihydro-1-benzofuran-5-yl}urea] | 1.87 nM | 11.3 nM | 153 nM
Cn1c(-c2ccccn2)c(C=C2Oc3cc(O)cc(O)c3C2=O)c2ccccc21 [Example 223, 4,6-dihydroxy-2-[(1-methyl-2-pyridin-2-yl-1H-indol-3-yl)methylene]-1-benzofuran-3(2H)-one] | 3660 nM | > 10000 nM | 60 nM

Results, then the compound that gave them:

IC50 (PI3K-alpha) | IC50 (PI3K-gamma) | IC50 (human TOR) | SMILES
582 nM | 3890 nM | 95 nM | CC(C)NC(=O)c1ccc(-c2cccc3c2c(/C=C2\Oc4cc(O)cc(O)c4C2=O)cn3C)cc1 [Example 395, 4-{3-[(Z)-(4,6-dihydroxy-3-oxo-1-benzofuran-2(3H)-ylidene)methyl]-1-methyl-1H-indol-4-yl}-N-isopropylbenzamide]
1840 nM | 8530 nM | 20 nM | Cn1cc(/C=C2\Oc3cc(O)cc(O)c3C2=O)c2c(-c3ccc(C#N)nc3)cccc21 [Example 397, 5-{3-[(Z)-(4,6-Dihydroxy-3-oxo-1-benzofuran-2(3H)-ylidene)methyl]-1-methyl-1H-indol-4-yl}pyridine-2-carbonitrile]
1150 nM | 2390 nM | 38.5 nM | COC(=O)Nc1ccc(-c2cccc3c2c(/C=C2\Oc4cc(O)cc(O)c4C2=O)cn3C)cc1 [Example 391, Methyl (4-{3-[(Z)-(4,6-Dihydroxy-3-oxo-1-benzofuran-2(3H)-ylidene)methyl]-1-methyl-1H-indol-4-yl}phenyl)carbamate]
2610 nM | 4200 nM | 110 nM | Cn1cc(/C=C2\Oc3cc(O)cc(O)c3C2=O)c2c(-c3ccsc3)cccc21 [Example 374, (2Z)-4,6-Dihydroxy-2-{[1-methyl-4-(3-thienyl)-1H-indol-3-yl]methylene}-1-benzofuran-3(2H)-one]
1000 nM | 4570 nM | 44.5 nM | Cn1cc(/C=C2\Oc3cc(O)cc(O)c3C2=O)c2c(-c3ccc(C#N)cc3)cccc21 [Example 368, 4-{3-[(Z)-(4,6-Dihydroxy-3-oxo-1-benzofuran-2(3H)-ylidene)methyl]-1-methyl-1H-indol-4-yl}benzonitrile]
432 nM | 3260 nM | 89 nM | Cn1cc(/C=C2\Oc3cc(O)cc(O)c3C2=O)c2c(-c3ccc(N)nc3)cccc21 [Example 380, (2Z)-2-{[4-(6-Aminopyridin-3-yl)-1-methyl-1H-indol-3-yl]methylene}-4,6-dihydroxy-1-benzofuran-3(2H)-one]
971 nM | 3400 nM | 107 nM | Cn1cc(/C=C2\Oc3cc(O)cc(O)c3C2=O)c2c(-c3ccoc3)cccc21 [Example 378, (2Z)-2-{[4-(3-Furyl)-1-methyl-1H-indol-3-yl]methylene}-4,6-dihydroxy-1-benzofuran-3(2H)-one]
460 nM | 4120 nM | 69 nM | CN(C)C(=O)Nc1ccc(-c2cccc3c2c(/C=C2\Oc4cc(O)cc(O)c4C2=O)cn3C)cc1 [Example 394, 3-(4-{3-[(Z)-(4,6-dihydroxy-3-oxo-1-benzofuran-2(3H)-ylidene)methyl]-1-methyl-1H-indol-4-yl}phenyl)-1,1-dimethylurea]
562 nM | 1090 nM | 29 nM | Cn1cc(/C=C2\Oc3cc(O)cc(O)c3C2=O)c2c(-c3ccc(O)cc3)cccc21 [Example 379, (2Z)-4,6-Dihydroxy-2-{[4-(4-hydroxyphenyl)-1-methyl-1H-indol-3-yl]methylene}-1-benzofuran-3(2H)-one]
